System: patients with T2DM
Assay: Example 1 study: fasting pharmacodynamic markers (glucose, insulin, C-peptide, glucagon, lipids, HOMA indices)
Format: in vivo, human
Method: Fasting plasma samples for glucose and insulin are explored as secondary PD markers. Exploratory PD may include, but are not limited to plasma glucagon, C-peptide, native OXM, lipid panel (triglycerides, total cholesterol, low-density lipoprotein cholesterol, and high-density lipoprotein cholesterol), beta cell function, and homeostatic model assessment (HOMA) indices.
Plasma concentrations of at least glucose, glucagon, insulin, C-peptide and native OXM, are assayed using validated analytical methods.
In respect of Cohort 1, PD sampling occurs at baseline and Days 1, 3 (48 hours post administration of Compound 1), 8, 22, 29, 50, 57, 78 and 80. […]

[1] = Cohort 1, escalated to 4.5 mg, Day 78 and Day 80
[2] = Cohort 1, escalated to 4.5 mg, Day 80
[3] = Cohort 2, escalated to 6.0 mg, Day 64
[4] = Cohort 2, escalated to 8.0 mg, Day 85

## CC(C)C[C@H](NC(=O)[C@H](CC(C)C)NC(=O)[C@H](Cc1c[nH]c2ccccc12)NC(=O)[C@H](CCC(=O)O)NC(=O)[C@@H](NC(=O)[C@H](Cc1ccccc1)NC(=O)[C@H](CCC(=O)O)NC(=O)[C@H](CCCCNC(=O)COCCOCCNC(=O)COCCOCCNC(=O)CC[C@H](NC(=O)CCCCCCCCCCCCCCCCCCC(=O)O)C(=O)O)NC(=O)[C@H](C)NC(=O)[C@H](CCCCN)NC(=O)[C@H](CCCCN)NC(=O)[C@H](CCC(=O)O)NC(=O)[C@H](CC(=O)O)NC(=O)[C@H](CC(C)C)NC(=O)[C@H](Cc1ccc(O)cc1)NC(=O)[C@H](CCCCN)NC(=O)[C@H](CO)NC(=O)[C@H](Cc1ccc(O)cc1)NC(=O)[C@H](CC(=O)O)NC(=O)[C@H](CO)NC(=O)[C@@H](NC(=O)[C@H](Cc1ccccc1)NC(=O)[C@@H](NC(=O)CNC(=O)[C@H](CCC(N)=O)NC(=O)C(C)(C)NC(=O)[C@@H](N)Cc1c[nH]cn1)[C@@H](C)O)[C@@H](C)O)C(C)C)C(=O)N[C@@H](CCC(=O)O)C(=O)NCC(=O)NCC(=O)N1CCC[C@H]1C(=O)N[C@@H](CO)C(=O)N[C@@H](CO)C(=O)NCC(N)=O [Compound 1]
Cohort 1, escalated to 4.5 mg, Day 78, baseline 14.79 pmol/L
  mean fasting glucagon: 6.65 pmol/L
Cohort 1, escalated to 4.5 mg, Day 78, baseline 667 pmol/L
  mean fasting C-peptide: 820 pmol/L
Cohort 1, escalated to 4.5 mg, Day 78, baseline 2.938
  mean fasting triglyceride: 1.456 mmol/L
Cohort 1, escalated to 4.5 mg, Day 78, baseline 4.704
  mean HOMA-IR index: 4.289
Cohort 1, escalated to 4.5 mg, Day 78, baseline 5.065
  mean fasting total cholesterol: 4.275 mmol/L
Cohort 1, escalated to 4.5 mg, Day 78, baseline 9.648
  mean fasting insulin: 13.362 mIU/L
[1]
  approximate decrease of HOMA-IR from baseline: ~9%
  approximate decrease of fasting LDL cholesterol from baseline: ~10%
  approximate decrease of fasting glucagon from baseline: 45-55%
  approximate decrease of fasting total cholesterol from baseline: 12-16%
  approximate decrease of fasting triglyceride from baseline: 29-50%
  approximate increase of fasting C-peptide from baseline: 22-31%
  approximate increase of fasting insulin from baseline: 38-46%
Cohort 1, escalated to 4.5 mg, Day 78 and Day 80, baseline 2.852
  mean fasting LDL cholesterol: 2.56 mmol/L
[2]
  approximate increase of HOMA-B from baseline: ~145%
  approximate reduction of mean fasting glucose from baseline: ~40%
Cohort 1, escalated to 4.5 mg, Day 80, baseline 14.79 pmol/L
  mean fasting glucagon: 8.19 pmol/L
Cohort 1, escalated to 4.5 mg, Day 80, baseline 667 pmol/L
  mean fasting C-peptide: 875 pmol/L
Cohort 1, escalated to 4.5 mg, Day 80, baseline 2.938
  mean fasting triglyceride: 2.084 mmol/L
Cohort 1, escalated to 4.5 mg, Day 80, baseline 5.065
  mean fasting total cholesterol: 4.461 mmol/L
Cohort 1, escalated to 4.5 mg, Day 80, baseline 9.648
  mean fasting insulin: 14.046 mIU/L
Cohort 1, escalated to 4.5 mg, Day 80, baseline 10.78
  mean fasting glucose: 6.52 mmol/L
Cohort 2, escalated to 6.0 mg
  approximate decrease of fasting glucagon from baseline: ~63%
  approximate increase of fasting C-peptide from baseline: ~12%
  approximate increase of fasting insulin from baseline: ~14%
[3]
  approximate decrease of HOMA-IR from baseline: ~20%
  approximate decrease of fasting LDL cholesterol from baseline: ~29%
  approximate decrease of fasting total cholesterol from baseline: ~26%
  approximate decrease of fasting triglyceride from baseline: ~43%
  approximate increase of HOMA-B from baseline: ~76%
Cohort 2, escalated to 6.0 mg, Day 64, baseline 1.867
  mean fasting triglyceride: 1.055 mmol/L
Cohort 2, escalated to 6.0 mg, Day 64, baseline 2.7
  mean HOMA-IR index: 2.158
Cohort 2, escalated to 6.0 mg, Day 64, baseline 2.796
  mean fasting LDL cholesterol: 1.997 mmol/L
Cohort 2, escalated to 6.0 mg, Day 64, baseline 4.971
  mean fasting total cholesterol: 3.673 mmol/L
Cohort 2, escalated to 6.0 mg, Day 64, baseline 9.108
  mean HOMA-B index: 16.072
Cohort 2, escalated to 6.0 mg, baseline 5.892
  mean fasting insulin: 6.73 mIU/L
Cohort 2, escalated to 6.0 mg, baseline 9.83
  mean fasting glucagon: 3.65 pmol/L
Cohort 2, escalated to 6.0 mg, baseline 532.8
  mean fasting C-peptide: 597 pmol/L
Cohort 2, escalated to 8.0 mg
  approximate increase of fasting C-peptide from baseline: approximately 2%
  approximate increase of fasting insulin from baseline: ~12%
Cohort 2, escalated to 8.0 mg, Day 80 (so in the source), baseline 9.83
  mean fasting glucagon: 2 pmol/L
[4]
  approximate decrease of HOMA-IR from baseline: approximately 27%
  approximate decrease of fasting LDL cholesterol from baseline: approximately 30%
  approximate decrease of fasting total cholesterol from baseline: approximately 27%
  approximate decrease of fasting triglyceride from baseline: approximately 54%
  approximate increase of HOMA-B from baseline: approximately 83%

Reference: US20260248879A1, “METHODS OF USING A GCG/GLP1 CO-AGONIST FOR THERAPY” (ELI LILLY AND COMPANY, priority 2022, published 2026)
